Patent US7989417B2, “Linkers for radiopharmaceutical compounds” (Bracco Imaging S.p.A., priority 2003, dated 2011)

Tests used:
[1] = tested on: PC3 tumor; assay: Radiotherapy studies in PC3 tumor-bearing nude mouse model; assay type: in vivo; details: Lu-177 labelled; for survival, short term efficacy study: 30 mCi/kg i.v. or s.c., up to 30 days, versus no treatment and versus same dose of L134
Procedure: A. Short Term Efficacy Studies: • Radiotherapy studies were performed using the PC3 tumor-bearing nude mouse model. […] (n=12 for each treatment group and n=36 for the untreated control group). For the first study, mice were administered 100 μL of ^177Lu-labelled compound of the invention at 30 mCi/kg, i.v, or s.c. under sterile conditions. The subjects were housed in a barrier environment for up to 30 days. Body weight and tumor size (by caliper measurement) were collected on each subject 3 times per week for the duration of the study. Criteria for early termination included: death; loss of total body weight (TBW) equal to or greater than 20%; tumor size equal to or greater than 2 cm^3.

[2] = Tracer dose biodistribution in xenografted PC3 tumor-bearing mice; details: Lu-177 labelled; for uptake in the tumor (in words): 1 and 24 h; for uptake in the mouse pancreas (in words): compared with L134, pancreas known to have GRP receptors
Procedure: In all studies, mice were administered 100 μL of ^177Lu-labelled test compound at 200 μCi/kg, i.v., with a residence time of 1 and 24 h per group (n=3-4). Tissues were analyzed in an LKB 1282 CompuGamma counter with appropriate standards.

[3] = tested on: rat epididymal fat cells; assay: Fat cell assay: activation of glucose oxidation; assay type: cell-based; details: buffers containing serum albumin; compared with native insulin
[4] = target: human serum albumin (Homo sapiens, UniProt P02768); assay: Binding to human serum albumin by ultrafiltration; details: 1 nM insulin solution in 0.6 mM human serum albumin, spiked with 125I-labeled insulin
Procedure: Binding to human serum albumin is determined by ultrafiltration according to Whitlam J. B. & Brown K. F.: J. Pharm. Sci. 70, 146-150, 1981, applying 1 nM bovine insulin solution in 0.6 mM human serum albumin, spiked with ^125I-labeled insulin. 95% of the insulin is bound. It is evident that such binding to albumin will reduce the renal elimination of the modified insulin (Compounds B and D) relative to that of native insulin.

[5] = tested on: rat epididymal fat cells; details: bound to a 1:1 conjugate of avidin and ferritin; compared with insulin; cited from earlier work

Row | Compound | survival, short term efficacy study [1] | uptake in the tumor (in words) ([2]; compared with control L134) | uptake in the mouse pancreas (in words) [2] | activity in fat cell assay (activation of glucose oxidation) [3] | also measured
1 | CSCC[C@H](NC(=O)[C@H](CC(C)C)NC(=O)[C@H](Cc1c[nH]cn1)NC(=O)CNC(=O)[C@@H](NC(=O)[C@H](C)NC(=O)[C@H](Cc1c[nH]c2ccccc12)NC(=O)[C@H](CCC(N)=O)NC(=O)CC[C@@H](C)[C@H]1CC[C@H]2[C@@H]3CC[C@@H]4C[C@@H](NC(=O)CNC(=O)CN5CCN(CC(=O)O)CCN(CC(=O)O)CCN(CC(=O)O)CC5)CC[C@]4(C)[C@H]3C[C@H](O)[C@]12C)C(C)C)C(N)=O [Compound L63, N-[(3β,5β,12α)-3-[[[[[4,7,10-Tris(carboxymethyl)-1,4,7,10-tetraazacyclododec-1-yl]acetyl]amino]acetyl]amino]-12-hydroxy-24-oxocholan-24-yl]-L-glutaminyl-L-tryptophyl-L-alanyl-L-valyl-glycyl-L-histidyl-L-leucyl-L-methioninamide] | increased survival | high tumour uptake | much higher |  | distribution of radioactivity in blood, liver and kidneys (in words) ([2]; compared with control L134): increased blood and liver values at early times
2 | CSCC[C@H](NC(=O)[C@H](CC(C)C)NC(=O)[C@H](Cc1c[nH]cn1)NC(=O)CNC(=O)[C@@H](NC(=O)[C@H](C)NC(=O)[C@H](Cc1c[nH]c2ccccc12)NC(=O)[C@H](CCC(N)=O)NC(=O)CC[C@@H](C)[C@H]1CC[C@H]2[C@@H]3[C@H](O)C[C@@H]4C[C@@H](NC(=O)CNC(=O)CN5CCN(CC(=O)O)CCN(CC(=O)O)CCN(CC(=O)O)CC5)CC[C@]4(C)[C@H]3C[C@H](O)[C@]12C)C(C)C)C(N)=O [Compound L64, N-[(3β,5β,7α,12α)-3-[[[[[4,7,10-Tris(carboxymethyl)-1,4,7,10-tetraazacyclododec-1-yl]acetyl]amino]acetyl]amino]-7,12-dihydroxy-24-oxocholan-24-yl]-L-glutaminyl-L-tryptophyl-L-alanyl-L-valyl-glycyl-L-histidyl-L-leucyl-L-methioninamide] | increased survival | much higher | much higher |  | survival, repeat study ([1]; same dose, n=46, followed longer, relative to controls (n=36), p<0.0001): significantly increased survival
3 | Bovine 1-[[(3β,5β,12α)-23-[(1,1-dimethyl)ethoxycarbonyl]-12-hydroxy-24-norcholan-3-yl]amino]carbonyl-3,5-bis[[4-(insulin-N^εB29-yl)-1,4-dioxobutyl]amino]benzene [Compound D] |  |  |  | identical activity to native insulin | 
4 | Bovine N^eB29-[4-[[(3β,5β,12α)-23-carboxy-12-hydroxy-24-norcholan-3-yl]amino]-4-oxobutanoyl]-insulin [Compound B] |  |  |  | identical activity to native insulin | bound to human serum albumin [4]: 95%
5 | N^εB29-biotinylinsulin |  |  |  |  | dose-response curve for the activation of glucose oxidation [5]: same dose-response curve as insulin
